From patent US20220118121A1, “PROSTATE SPECIFIC MEMBRANE ANTIGEN (PSMA) LIGANDS WITH IMPROVED TISSUE SPECIFICITY” (Ruprecht-Karls-Universität Heidelberg, priority 2019, published 2022)
Read-outs that look alike come from different tables or passages of the source. Where a SMILES comes first, the peptide text is derived from it. [ ]: non-standard residue; d: D form. The star is where a group is joined. DOTA = O=C(O)CN1CCN(CC(=O)O)CCN(CC(=O)*)CCN(CC(=O)O)CC1; EuK = O=C(O)CC[C@H](NC(=O)N[C@@H](CCCCN*)C(=O)O)C(=O)O; 2Nal = N[C@@H](Cc1ccc2ccccc2c1)C(=O)O; Trx = NC[C@H]1CC[C@H](C(=O)O)CC1

Legend:
PSMA = biological target: T1, PSMA (Homo sapiens, UniProt Q04609); assay: competitive cell binding assay vs 68Ga-labeled PSMA-10 on LNCaP cells
T1 construct: host or cells: LNCaP cells
Description: (§1) PSMA^+ LNCaP cells (ATCC CRL-1740) were cultured in RPMI medium. Cells were grown at 37° C. in humidified air with 5% C02 and were harvested using trypsin-ethylenediaminetetraacetic acid.
(§2) The competitive cell binding assay and internalization experiments were performed according to Eder M et al. (2012), Bioconjug Chem 23(4):688.
Briefly, the cells (10^5 per well) were incubated with a 0.8 nM solution of ^68Ga-labeled radioligand [Glu-urea-Lys(Ahx)]2-HBED-CC (PSMA-10, precursor ordered from ABX, Radeberg, Germany) in the presence of 12 different concentrations of analyte (0-5000 nM, 100 μL/well). After incubation, the mixture was removed and the wells were washed 3 times with PBS using a multiscreen vacuum manifold (Millipore, Billerica, Mass.). Cell-bound radioactivity was measured using a gamma counter (Packard Cobra II, GMI, Minnesota, USA). The 50% inhibitory concentration (IC50) values were calculated by fitting the data using a nonlinear regression algorithm (GraphPad Software).

PSMA+ LNCaP cells = assay: cell surface binding and internalization of radiolabeled compounds; assay type: cell-based; conditions: for Specific Cell Surface Binding / Specific Internalization / Cell Surface binding / Internalization: 68Ga-labeled; for Specific cell surface bound / Specific internalized: 177Lu-labeled, LNCaP cells
Description: as §1, §2
For internalization experiments, 10^5 cells per well were seeded in poly-L-lysine coated 24-well cell culture plates 24 h before incubation. After washing, the cells were incubated with 30 nM of the ^68Ga- or ^177Lu-radiolabeled compound for 45 min at 37° C. and at 4° C., respectively. Cellular uptake was terminated by washing 3 times with 1 mL of ice-cold PBS. To remove surface-bound radioactivity, cells were incubated twice with 0.5 mL glycine-HCl in PBS (50 mM, pH=2.8) for 5 min. The cells were washed with 1 mL of ice-cold PBS and lysed using 0.3 N NaOH (0.5 mL). The surface-bound and the internalized fractions were measured in a gamma counter. The cell uptake was calculated as percent of the initially added radioactivity bound to 10^5 cells [% ID/10^5 cells].

[1] = LNCaP cells, 0.8 nM 68Ga-PSMA-10 radioligand, read-out: Specific Binding Affinity IC50

T1 sequence (Q04609 whole entry): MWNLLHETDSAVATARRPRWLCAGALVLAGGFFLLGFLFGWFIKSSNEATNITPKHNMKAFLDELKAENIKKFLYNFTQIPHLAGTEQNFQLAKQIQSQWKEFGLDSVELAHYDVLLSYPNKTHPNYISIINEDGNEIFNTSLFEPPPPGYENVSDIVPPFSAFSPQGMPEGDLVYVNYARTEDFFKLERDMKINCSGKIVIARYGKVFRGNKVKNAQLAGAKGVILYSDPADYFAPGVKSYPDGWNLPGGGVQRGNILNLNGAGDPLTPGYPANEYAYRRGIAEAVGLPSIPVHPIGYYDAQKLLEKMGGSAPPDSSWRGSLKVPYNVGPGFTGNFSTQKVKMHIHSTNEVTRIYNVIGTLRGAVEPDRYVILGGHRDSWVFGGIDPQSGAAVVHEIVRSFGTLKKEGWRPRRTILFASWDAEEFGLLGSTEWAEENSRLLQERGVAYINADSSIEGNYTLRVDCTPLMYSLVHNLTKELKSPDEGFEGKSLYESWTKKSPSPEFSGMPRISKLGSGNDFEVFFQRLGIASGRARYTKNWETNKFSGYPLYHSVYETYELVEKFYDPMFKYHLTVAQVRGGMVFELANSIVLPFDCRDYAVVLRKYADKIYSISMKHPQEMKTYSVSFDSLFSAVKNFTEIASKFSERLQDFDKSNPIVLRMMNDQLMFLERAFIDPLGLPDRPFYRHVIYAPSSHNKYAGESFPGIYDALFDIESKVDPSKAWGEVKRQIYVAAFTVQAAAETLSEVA

SMILES | IC50 (PSMA; [1]) [nM] | Specific Cell Surface Binding (PSMA+ LNCaP cells) [% ID/10^5 cells] | Specific Internalization (PSMA+ LNCaP cells) [% ID/10^5 cells] | Cell Surface binding (PSMA+ LNCaP cells; blocked) [% ID/10^5 cells] | Internalization (PSMA+ LNCaP cells; blocked) [% ID/10^5 cells] | Cell Surface binding (PSMA+ LNCaP cells; not blocked) [% ID/10^5 cells] | Internalization (PSMA+ LNCaP cells; not blocked) [% ID/10^5 cells] | IC50 (PSMA) [nM] | Specific cell surface bound (PSMA+ LNCaP cells) [% ID/10^5 cells] | Specific internalized (PSMA+ LNCaP cells) [% ID/10^5 cells]
O=C(O)CC[C@H](NC(=O)N[C@@H](CCCCNC(=O)[C@H](Cc1ccc2ccccc2c1)NC(=O)[C@H]1CC[C@H](CNC(=O)[C@H](Cc2c[nH]cn2)NC(=O)[C@H](CCC(=O)O)NC(=O)[C@H](Cc2c[nH]cn2)NC(=O)[C@H](CCC(=O)O)NC(=O)[C@H](Cc2c[nH]cn2)NC(=O)[C@H](CCC(=O)O)NC(=O)[C@H](Cc2c[nH]cn2)NC(=O)[C@H](CCC(=O)O)NC(=O)CN2CCN(CC(=O)O)CCN(CC(=O)O)CCN(CC(=O)O)CC2)CC1)C(=O)O)C(=O)O [PS-4, DOTA-(EH)4-CHx-2NaI-PSMA] ({DOTA}-EHEHEHEH[Trx][2Nal]-EuK) | 46.7 ± 37.3 | 1.33 ± 0.09 | 0.52 ± 0.04 | 0.083 ± 0.029 | 0.151 ± 0.048 | 1.420 ± 0.113 | 0.676 ± 0.070 | – | – | –
O=C(O)CC[C@H](NC(=O)N[C@@H](CCCCNC(=O)[C@H](Cc1ccc2ccccc2c1)NC(=O)[C@H](Cc1c[nH]cn1)NC(=O)[C@H](CCC(=O)O)NC(=O)[C@H](Cc1c[nH]cn1)NC(=O)[C@H](CCC(=O)O)NC(=O)[C@H](Cc1c[nH]cn1)NC(=O)[C@H](CCC(=O)O)NC(=O)[C@H]1CC[C@H](CNC(=O)CN2CCN(CC(=O)O)CCN(CC(=O)O)CCN(CC(=O)O)CC2)CC1)C(=O)O)C(=O)O [PS-3, DOTA-Chx-(EH)3-2NaI-PSMA] ({DOTA-Trx}-EHEHEH[2Nal]-EuK) | 43.1 ± 9.63 | 0.84 ± 0.03 | 0.24 ± 0.02 | 0.183 ± 0.025 | 0.317 ± 0.025 | 1.023 ± 0.140 | 0.557 ± 0.042 | – | – | –
O=C(O)CC[C@H](NC(=O)N[C@@H](CCCCNC(=O)[C@H](Cc1ccc2ccccc2c1)NC(=O)[C@H]1CC[C@H](CNC(=O)[C@H](CCC(=O)O)NC(=O)[C@H](CCC(=O)O)NC(=O)[C@H](CCC(=O)O)NC(=O)CN2CCN(CC(=O)O)CCN(CC(=O)O)CCN(CC(=O)O)CC2)CC1)C(=O)O)C(=O)O [PS-5, DOTA-(E)3-CHx-2NaI-PSMA] ({DOTA}-EEE[Trx][2Nal]-EuK) | – | 0.94 ± 0.13 | 0.63 ± 0.28 | 0.055 ± 0.013 | 0.095 ± 0.026 | 1.003 ± 0.127 | 0.725 ± 0.269 | 10.4 ± 2.94 | – | –
O=C(O)CC[C@H](NC(=O)N[C@@H](CCCCNC(=O)[C@H](Cc1ccc2ccccc2c1)NC(=O)[C@H](Cc1c[nH]cn1)NC(=O)[C@H](Cc1c[nH]cn1)NC(=O)[C@H](Cc1c[nH]cn1)NC(=O)[C@H]1CC[C@H](CNC(=O)CN2CCN(CC(=O)O)CCN(CC(=O)O)CCN(CC(=O)O)CC2)CC1)C(=O)O)C(=O)O [PS10, DOTA-CHx-(H)3-2NaI-PSMA] ({DOTA-Trx}-HHH[2Nal]-EuK) | 54 ± 20.9 | 0.55 ± 0.08 | 0.44 ± 0.08 | 0.027 ± 0.006 | 0.083 ± 0.006 | 0.580 ± 0.046 | 0.523 ± 0.078 | – | – | –
O=C(O)CC[C@H](NC(=O)N[C@@H](CCCCNC(=O)[C@H](CCC(=O)O)NC(=O)[C@H](CCC(=O)O)NC(=O)[C@H](CCC(=O)O)NC(=O)[C@H](Cc1ccc2ccccc2c1)NC(=O)[C@H]1CC[C@H](CNC(=O)CN2CCN(CC(=O)O)CCN(CC(=O)O)CCN(CC(=O)O)CC2)CC1)C(=O)O)C(=O)O [PS-6, DOTA-CHx-2NaI-(E)3-PSMA] ({DOTA-Trx}-[2Nal]EEE-EuK) | 28.6 ± 8.42 | 0.71 ± 0.12 | 0.45 ± 0.12 | 0.050 ± 0.020 | 0.156 ± 0.023 | 0.767 ± 0.156 | 0.607 ± 0.136 | – | – | –
O=C(O)CC[C@H](NC(=O)N[C@@H](CCCCNC(=O)[C@H](Cc1ccc2ccccc2c1)NC(=O)[C@H]1CC[C@H](CNC(=O)[C@H](Cc2c[nH]cn2)NC(=O)[C@H](Cc2c[nH]cn2)NC(=O)[C@H](Cc2c[nH]cn2)NC(=O)CN2CCN(CC(=O)O)CCN(CC(=O)O)CCN(CC(=O)O)CC2)CC1)C(=O)O)C(=O)O [PS-7, DOTA-(H)3-CHx-2NaI-PSMA] ({DOTA}-HHH[Trx][2Nal]-EuK) | 22.7 ± 6.47 | 0.69 ± 0.11 | 0.47 ± 0.11 | 0.123 ± 0.015 | 0.207 ± 0.021 | 0.817 ± 0.047 | 0.673 ± 0.093 | – | – | –

Continued by falling IC50 (PSMA; [1]), values first:

IC50 (PSMA; [1]) [nM] | SMILES | Specific Cell Surface Binding (PSMA+ LNCaP cells) [% ID/10^5 cells] | Specific Internalization (PSMA+ LNCaP cells) [% ID/10^5 cells] | Cell Surface binding (PSMA+ LNCaP cells; blocked) [% ID/10^5 cells] | Internalization (PSMA+ LNCaP cells; blocked) [% ID/10^5 cells] | Cell Surface binding (PSMA+ LNCaP cells; not blocked) [% ID/10^5 cells] | Internalization (PSMA+ LNCaP cells; not blocked) [% ID/10^5 cells] | IC50 (PSMA) [nM] | Specific cell surface bound (PSMA+ LNCaP cells) [% ID/10^5 cells] | Specific internalized (PSMA+ LNCaP cells) [% ID/10^5 cells]
56 ± 7.7 | O=C(O)CC[C@H](NC(=O)N[C@@H](CCCCNC(=O)[C@H](Cc1c[nH]cn1)NC(=O)[C@H](CCC(=O)O)NC(=O)[C@H](Cc1c[nH]cn1)NC(=O)[C@H](CCC(=O)O)NC(=O)[C@H](Cc1c[nH]cn1)NC(=O)[C@H](CCC(=O)O)NC(=O)[C@H](Cc1ccc2ccccc2c1)NC(=O)[C@H]1CC[C@H](CNC(=O)CN2CCN(CC(=O)O)CCN(CC(=O)O)CCN(CC(=O)O)CC2)CC1)C(=O)O)C(=O)O [PS-1, DOTA-CHx-2NaI-(EH)3-PSMA] ({DOTA-Trx}-[2Nal]EHEHEH-EuK) | 1.09 ± 0.17 | 0.46 ± 0.11 | 0.069 ± 0.013 | 0.212 ± 0.037 | 1.162 ± 0.183 | 0.676 ± 0.155 | – | 6.84 ± 0.06 | 4.32 ± 0.03
27.9 ± 6.93 | O=C(O)CC[C@H](NC(=O)N[C@@H](CCCCNC(=O)[C@H](Cc1ccc2ccccc2c1)NC(=O)[C@H]1CC[C@H](CNC(=O)[C@H](CCC(=O)O)NC(=O)[C@H](Cc2c[nH]cn2)NC(=O)[C@H](CCC(=O)O)NC(=O)[C@H](Cc2c[nH]cn2)NC(=O)[C@H](CCC(=O)O)NC(=O)[C@H](Cc2c[nH]cn2)NC(=O)CN2CCN(CC(=O)O)CCN(CC(=O)O)CCN(CC(=O)O)CC2)CC1)C(=O)O)C(=O)O [PS-4.2, DOTA-(HE)3-CHx-2NaI-PSMA] ({DOTA}-HEHEHE[Trx][2Nal]-EuK) | 1.35 ± 0.28 | 0.71 ± 0.28 | 0.080 ± 0.010 | 0.113 ± 0.023 | 1.437 ± 0.138 | 0.676 ± 0.070 | – | – | –
23.4 ± 9.7 | O=C(O)CC[C@H](NC(=O)N[C@@H](CCCCNC(=O)[C@H](Cc1ccc2ccccc2c1)NC(=O)[C@H](CCC(=O)O)NC(=O)[C@H](CCC(=O)O)NC(=O)[C@H](CCC(=O)O)NC(=O)[C@H]1CC[C@H](CNC(=O)CN2CCN(CC(=O)O)CCN(CC(=O)O)CCN(CC(=O)O)CC2)CC1)C(=O)O)C(=O)O [PS-9, DOTA-CHx-(E)3-2NaI-PSMA] ({DOTA-Trx}-EEE[2Nal]-EuK) | 0.59 ± 0.09 | 0.27 ± 0.07 | 0.060 ± 0.021 | 0.138 ± 0.046 | 0.650 ± 0.083 | 0.410 ± 0.090 | – | – | –
21.8 ± 3.13 | O=C(O)CCC(NC(=O)NC(CCCCNC(=O)C(Cc1ccc2ccccc2c1)NC(=O)C1CCC(CNC(=O)CN2CCN(CC(=O)O)CCN(CC(=O)O)CCN(CC(=O)O)CC2)CC1)C(=O)O)C(=O)O (centres unmarked) [PSMA-617, 2-[3-(1-Carboxy-5-{3-naphthalen-2-yl-2-[(4-{[2-(4,7,10-tris-carboxymethyl-1,4,7,10-tetraaza-cyclododec-1-yl)-acetylamino]-methyl}-cyclohexanecarbonyl)-amino]-propionylamino}-pentyl)-ureido]-pentanedioic acid, reference compound] | 0.72 ± 0.06 | 0.39 ± 0.06 | 0.063 ± 0.014 | 0.117 ± 0.032 | 0.792 ± 0.134 | 0.504 ± 0.051 | – | 4.36 ± 1.33 | 2.94 ± 0.35
